The source of these data is US5446065A, “Sulfonamides of phenylalkylamines or phenoxyalkylamines processes for their preparation and medicaments containing these compounds” (Boehringer Mannheim GmbH, priority 1990, dated 1995).

The test system of assay [1] is pre-contracted isolated rat aortas. Nature of the assay: TX-antagonistic action: inhibition of contraction of the isolated rat aorta ring pre-contracted with U 46619. In kind it is cell-based. The note with it: aorta rings precontracted with 0.3 μmol/l U 46619, cumulative addition, 37° C. The method, then: 1. TX-antagonistic action on the isolated rat sorts ring pre-contracted with U 46619
The isolated rat sorts freed from surrounding connective tissue is cut up into equally wide rings and superinfused in a 10 ml organ bath with Krebs-Hanseleit buffer at 37° C. After about 45 min., equilibration time, the sorts rings are precontracted with 0.3 μmol/l U 46619, a stable analogue of the prostaglandin endoperoxide PGH2 (Upjohn & Co., Kalamazoo, USA). U 46619 was characterised as selective thromboxane mimetic (Coleman et al., Brit. J. Pharmacol. 68, 127P, 1980). As soon as a stable plateau is reached (after about 15 min.), the test substance is added cumulatively directly into the organ bath to the aorta ring, beginning with 10 nmol/l, until either an end concentration of 100 μmol/l is reached or the contraction is completely antagonised. There is calculated the particular percentage inhibition of the contraction by the test substance. From the concentration-action curves is determined the IC50, i.e. the half maximum inhibiting concentration.

The test system of assay [2] is U 46619-caused lung embolism. The experiment in a line: Prevention of the U 46619-caused lung embolism (survival). Format: in vivo, male NMRI mice. The note with it: po, mouse, stomach probe, U 46619 injected 4 h later (800-1000 μg/kg, tail vein), read-out: survival rate of mouse 1 mg/kg after 4 h. The method, then: 2. Prevention of the U 46619-caused lung embolism
Male NMRI mice of about 25 g body weight are used. The test substance is suspended in 1% methyl cellulose solution and administered to the experimental animals by means of a stomach probe. The provocation test consists in that a dose lethal for the control animals (800-1000 μg/kg) of the thromboxane mimetic (U 46619 of the firm Upjohn) is rapidly injected into the tail vein. The period of the specific antagonistic action is tested in that the animals are pre-treated with 1 mg/kg of the various test substances and the injection of U 46619 takes place after 4 h. The survival rate indicates what percent of the animals used survive the injection of the thromboxane mimetic.

In assay [3] the test system is U46619-induced bronchospasm of the guinea pig. Nature of the assay: Inhibition of the U 46619-induced bronchospasm of the anaesthetised guinea pig. The conditions noted are these: Cavia porcellus, iv, 10 min, test substance i.v., 10 μg/kg U 46619 i.v., AUC over 10 min, read-out: ID50 of U46619-induced bronchospasm of the guinea pig. Format: in vivo. As to the method:
3. Inhibition of the U 46619-induced bronchospasm of the anaesthetised guinea pig
Guinea pigs are anaesthetised with narcoren and provided with a jugular vein catheter and a tracheal canula. The animals are mechanically respirated with atmospheric air with 1 ml/100 g body weight. The tracheal canula is connected via a three-way stopcock with a Stathem pressure element which takes up the pressure resulting by the contraction of the smooth musculature in the trachea and passes on to a recorder via a measuring bridge. After achievement of a constant basal tonus, the animals receive 10 μg/kg U 46619 i.v. administered via the jugular vein catheter. The dose induces a rapidly increasing bronchospasm which, after about 10 minutes, again subsides and is very readily reproducable. After 15 minutes follows a second administration of 10 μg/kg U 46619, in the course of which, after 5 minutes, the test substance is given i.v. in various doses. After a further 15 minutes, the same dose of U 46619 is again injected. The areas under the curve over 10 min of the administration 1 and 3 are determined planimetrically on a Kontron-Videoplan unit and the bronchospasm after administration 3 calculated in percentage of the bronchospasm after administration 1. The ID50 of the test substance can be determined from the quotients.

In the case of `NCCOc1cccc(CCNS(=O)(=O)c2ccc(Cl)cc2)c1` [Ex. 4, 1-[3-[2-(4-Chlorophenylsulphonylamino)-ethyl]-phenoxy]-2-aminoethane], the half-maximal inhibitory concentration (IC50) (in general, the concentration that gives 50% inhibition) in assay [1] is 340 nM. Further, in assay [2], the responders at 1 mg/kg amounted to 100%. Moreover, the ED50 in assay [3] worked out at 0.01 mg/kg.

In turn, `O=C(COc1cccc(CCNS(=O)(=O)c2ccc(Cl)cc2)c1)NCCO` [Ex. 1 f, 3-[2-(4-chlorophenylsulphonylamino)-ethyl]-phenoxyacetic acid (2-hydroxyethylamide)] displayed an IC50 in assay [1] of 1600 nM. The responders at 1 mg/kg in assay [2] was 100%. Moreover, the ED50 in assay [3] came to 0.02 mg/kg.

For the compound `NCCCc1ccc(CCNS(=O)(=O)c2ccc(Cl)cc2)cc1` [Ex. 4 m, 1-[4-[2-(4-chlorophenylsulphonylamino)-ethyl]-phenyl]-3-aminopropane], the IC50 in assay [1] was determined as 3000 nM. In assay [2], the responders at 1 mg/kg came to 100%. For the same compound, in assay [3], the ED50 amounted to 0.05 mg/kg.

As for `NCCc1ccc(CCNS(=O)(=O)c2ccc(Cl)cc2)cc1` [Ex. 5, 1-[4-[2-(4-Chlorophenylsulphonylamino)-ethyl]-phenyl]-2-aminoethane], it took 100 nM to reach half-maximal inhibition in assay [1] (IC50). The responders at 1 mg/kg in assay [2] is 100%. Also, the ED50 in assay [3] was 0.05 mg/kg.

The compound `NCCCCc1ccc(CCNS(=O)(=O)c2ccc(Cl)cc2)cc1` [Ex. 4 s, 1-[4-[2-(4-chlorophenylsulphonylamino)-ethyl]-phenyl]-4-aminobutane] returned an IC50 in assay [1] of 2600 nM. Also, in assay [2], the responders at 1 mg/kg amounted to 90%. In assay [3], the ED50 amounted to 0.1 mg/kg.

Take `O=C(COc1cccc(CCNS(=O)(=O)c2ccc(Cl)cc2)c1)N(CCO)CCO` [Ex. 1 g, 3-[2-(4-chlorophenylsulphonylamino)-ethyl]-phenoxyacetic acid 2-[bis-(2-hydroxyethyl)-amide]]: in assay [1], the 50% inhibitory concentration (IC50) amounted to 1600 nM. For the same compound, the responders at 1 mg/kg in assay [2] came to 100%. The ED50 in assay [3] turned out to be 0.04 mg/kg.

In assay [1], `O=C(COc1ccc(CCNS(=O)(=O)c2ccc(Cl)cc2)cc1)Nc1cccnc1` [Ex. 1 r, 4-[2-(4-chlorophenylsulphonylamino)-ethyl]-phenoxyacetic acid (3-pyridyl)-amide] showed a concentration for half-maximal inhibition (IC50) of 1000 nM. Moreover, the responders at 1 mg/kg in assay [2] is 90%. The ED50 in assay [3] was determined as 0.02 mg/kg.

In the case of `CCNC(=O)COc1cccc(CCNS(=O)(=O)c2ccc(Cl)cc2)c1` [Ex. 2 a, 3-[2-(4-chlorophenylsulphonylamino)-ethyl]-phenoxyacetic acid ethylamide], in assay [1], the IC50 amounted to 1800 nM. Besides, the responders at 1 mg/kg in assay [2] turned out to be 100%. For the same compound, in assay [3], the ED50 was determined as 0.01 mg/kg.

Turning to `O=C(COc1cccc(CCNS(=O)(=O)c2ccc(Cl)cc2)c1)N1CCCCC1` [Ex. 1 d, 3-[2-(4-chlorophenylsulphonylamino)-ethyl]-phenoxyacetylpiperidide], half-maximal inhibition in assay [1] (IC50) required 3400 nM. Moreover, the responders at 1 mg/kg in assay [2] was 100%. The ED50 in assay [3] was 0.5 mg/kg.
